Test results: ChEMBL document CHEMBL4665869, “New thiazolopyrimidine as anticancer agents: Synthesis, biological evaluation, DNA binding, molecular modeling and ADMET study” (Bioorg Med Chem Lett, 2020)
Converted amounts (≈) assume the structure as drawn.

How the values were obtained:
A549 = experiment: Growth inhibition of human A549 cells at 10 uM relative to control; format: functional; conditions: read-out: GI
DU-145 = experiment: Growth inhibition of human DU-145 cells at 10 uM relative to control; format: functional; conditions: read-out: GI
DNA = experiment: Displacement of methyl green from DNA (unknown origin) assessed as DNA intercalation after 24 hrs by colorimetric assay; format: nucleic-acid assay
CAKI-1 = experiment: Growth inhibition of human CAKI-1 cells at 10 uM relative to control; format: functional; conditions: read-out: GI
SK-OV-3 = experiment: Growth inhibition of human SK-OV-3 cells at 10 uM relative to control; format: functional; conditions: read-out: GI
SW-620 = experiment: Growth inhibition of human SW-620 cells at 10 uM relative to control; format: functional; conditions: read-out: GI
ACHN = experiment: Growth inhibition of human ACHN cells at 10 uM relative to control; format: functional; conditions: read-out: GI
MDA-MB-468 = experiment: Growth inhibition of human MDA-MB-468 cells at 10 uM relative to control; format: functional; conditions: read-out: GI
UACC-257 = experiment: Growth inhibition of human UACC-257 cells at 10 uM relative to control; format: functional; conditions: read-out: GI
MDA-MB-231 = experiment: Growth inhibition of human MDA-MB-231 cells at 10 uM relative to control; format: functional; conditions: read-out: GI
HOP-62 = experiment: Growth inhibition of human HOP-62 cells at 10 uM relative to control; format: functional; conditions: read-out: GI
NCI-H23 = experiment: Growth inhibition of human NCI-H23 cells at 10 uM relative to control; format: functional; conditions: read-out: GI
MDA-MB-435 = experiment: Growth inhibition of human MDA-MB-435 cells at 10 uM relative to control; format: functional; conditions: read-out: GI
RXF 393 = experiment: Growth inhibition of human RXF 393 cells at 10 uM relative to control; format: functional; conditions: read-out: GI
NCI-H322M = experiment: Growth inhibition of human NCI-H322M cells at 10 uM relative to control; format: functional; conditions: read-out: GI
SN12C = experiment: Growth inhibition of human SN12C cells at 10 uM relative to control; format: functional; conditions: read-out: GI
A498 = experiment: Growth inhibition of human A498 cells at 10 uM relative to control; format: functional; conditions: read-out: GI
SK-MEL-2 = experiment: Growth inhibition of human SK-MEL-2 cells at 10 uM relative to control; format: functional; conditions: read-out: GI
MOLT-4 = experiment: Growth inhibition of human MOLT-4 cells at 10 uM relative to control; format: functional; conditions: read-out: GI
SR = experiment: Growth inhibition of human SR cells at 10 uM relative to control; format: functional; conditions: read-out: GI
SK-MEL-5 = experiment: Growth inhibition of human SK-MEL-5 cells at 10 uM relative to control; format: functional; conditions: read-out: GI
HCT-116 = experiment: Growth inhibition of human HCT-116 cells at 10 uM relative to control; format: functional; conditions: read-out: GI
OVCAR-8 = experiment: Growth inhibition of human OVCAR-8 cells at 10 uM relative to control; format: functional; conditions: read-out: GI
HT-29 = experiment: Growth inhibition of human HT-29 cells at 10 uM relative to control; format: functional; conditions: read-out: GI
NCI-H460 = experiment: Growth inhibition of human NCI-H460 cells at 10 uM relative to control; format: functional; conditions: read-out: GI
COLO 205 = experiment: Growth inhibition of human COLO 205 cells at 10 uM relative to control; format: functional; conditions: read-out: GI
HCC 2998 = experiment: Growth inhibition of human HCC 2998 cells at 10 uM relative to control; format: functional; conditions: read-out: GI
HCT-15 = experiment: Growth inhibition of human HCT-15 cells at 10 uM relative to control; format: functional; conditions: read-out: GI
PC-3 = experiment: Growth inhibition of human PC-3 cells at 10 uM relative to control; format: functional; conditions: read-out: GI
SNB-19 = experiment: Growth inhibition of human SNB-19 cells at 10 uM relative to control; format: functional; conditions: read-out: GI
IGROV-1 = experiment: Growth inhibition of human IGROV-1 cells at 10 uM relative to control; format: functional; conditions: read-out: GI
SK-MEL-28 = experiment: Growth inhibition of human SK-MEL-28 cells at 10 uM relative to control; format: functional; conditions: read-out: GI
BT-549 = experiment: Growth inhibition of human BT-549 cells at 10 uM relative to control; format: functional; conditions: read-out: GI
LOX IMVI = experiment: Growth inhibition of human LOX IMVI cells at 10 uM relative to control; format: functional; conditions: read-out: GI
Malme-3M = experiment: Growth inhibition of human Malme-3M cells at 10 uM relative to control; format: functional; conditions: read-out: GI
SF-268 = experiment: Growth inhibition of human SF-268 cells at 10 uM relative to control; format: functional; conditions: read-out: GI
NCI/ADR-RES = experiment: Growth inhibition of human NCI/ADR-RES cells at 10 uM relative to control; format: functional; conditions: read-out: GI
UACC-62 = experiment: Growth inhibition of human UACC-62 cells at 10 uM relative to control; format: functional; conditions: read-out: GI
NCI-H226 = experiment: Growth inhibition of human NCI-H226 cells at 10 uM relative to control; format: functional; conditions: read-out: GI
U-251 = experiment: Growth inhibition of human U-251 cells at 10 uM relative to control; format: functional; conditions: read-out: GI
MCF7 = experiment: Growth inhibition of human MCF7 cells at 10 uM relative to control; format: functional; conditions: read-out: GI
786-0 = experiment: Growth inhibition of human 786-0 cells at 10 uM relative to control; format: functional; conditions: read-out: GI
T47D = experiment: Growth inhibition of human T47D cells at 10 uM relative to control; format: functional; conditions: read-out: GI
OVCAR-5 = experiment: Growth inhibition of human OVCAR-5 cells at 10 uM relative to control; format: functional; conditions: read-out: GI
SF-539 = experiment: Growth inhibition of human SF-539 cells at 10 uM relative to control; format: functional; conditions: read-out: GI
SF-295 = experiment: Growth inhibition of human SF-295 cells at 10 uM relative to control; format: functional; conditions: read-out: GI
OVCAR-4 = experiment: Growth inhibition of human OVCAR-4 cells at 10 uM relative to control; format: functional; conditions: read-out: GI
K562 = experiment: Growth inhibition of human K562 cells at 10 uM relative to control; format: functional; conditions: read-out: GI
CCRF-CEM = experiment: Growth inhibition of human CCRF-CEM cells at 10 uM relative to control; format: functional; conditions: read-out: GI
NCI-H522 = experiment: Growth inhibition of human NCI-H522 cells at 10 uM relative to control; format: functional; conditions: read-out: GI
M14 = experiment: Growth inhibition of human M14 cells at 10 uM relative to control; format: functional; conditions: read-out: GI
HL-60(TB) = experiment: Growth inhibition of human HL-60(TB) cells at 10 uM relative to control; format: functional; conditions: read-out: GI
KM12 = experiment: Growth inhibition of human KM12 cells at 10 uM relative to control; format: functional; conditions: read-out: GI
RPMI-8226 = experiment: Growth inhibition of human RPMI-8226 cells at 10 uM relative to control; format: functional; conditions: read-out: GI
TK-10 = experiment: Growth inhibition of human TK-10 cells at 10 uM relative to control; format: functional; conditions: read-out: GI
SNB-75 = experiment: Growth inhibition of human SNB-75 cells at 10 uM relative to control; format: functional; conditions: read-out: GI
UO-31 = experiment: Growth inhibition of human UO-31 cells at 10 uM relative to control; format: functional; conditions: read-out: GI
Hs-578T = experiment: Growth inhibition of human Hs-578T cells at 10 uM relative to control; format: functional; conditions: read-out: GI

CCOC(=O)C1=CSC2=NC(/C=C/c3ccc(Cl)cc3)=CC(c3ccc(Cl)cc3)N12 (stereo not drawn)
inhibition of growth at 10 µM (A549): < 10%
inhibition of growth at 10 µM (DU-145): < 10%
IC50 (DNA): 79.28 µg/mL (≈ 173 µM)
inhibition of growth at 10 µM (CAKI-1): < 10%
inhibition of growth at 10 µM (SK-OV-3): < 10%
inhibition of growth at 10 µM (SW-620): < 10%
inhibition of growth at 10 µM (ACHN): < 10%
inhibition of growth at 10 µM (MDA-MB-468): < 10%
inhibition of growth at 10 µM (UACC-257): < 10%
inhibition of growth at 10 µM (MDA-MB-231): < 10%
inhibition of growth at 10 µM (HOP-62): < 10%
inhibition of growth at 10 µM (NCI-H23): < 10%
inhibition of growth at 10 µM (MDA-MB-435): < 10%
inhibition of growth at 10 µM (RXF 393): < 10%
inhibition of growth at 10 µM (NCI-H322M): < 10%
inhibition of growth at 10 µM (SN12C): < 10%
inhibition of growth at 10 µM (A498): 11.8%
inhibition of growth at 10 µM (SK-MEL-2): < 10%
inhibition of growth at 10 µM (MOLT-4): 16.7%
inhibition of growth at 10 µM (SR): < 10%
inhibition of growth at 10 µM (SK-MEL-5): < 10%
inhibition of growth at 10 µM (HCT-116): < 10%
inhibition of growth at 10 µM (OVCAR-8): < 10%
inhibition of growth at 10 µM (HT-29): < 10%
inhibition of growth at 10 µM (NCI-H460): < 10%
inhibition of growth at 10 µM (COLO 205): < 10%
inhibition of growth at 10 µM (HCC 2998): < 10%
inhibition of growth at 10 µM (HCT-15): < 10%
inhibition of growth at 10 µM (PC-3): < 10%
inhibition of growth at 10 µM (SNB-19): < 10%
inhibition of growth at 10 µM (IGROV-1): < 10%
inhibition of growth at 10 µM (SK-MEL-28): < 10%
inhibition of growth at 10 µM (BT-549): < 10%
inhibition of growth at 10 µM (LOX IMVI): < 10%
inhibition of growth at 10 µM (Malme-3M): < 10%
inhibition of growth at 10 µM (SF-268): < 10%
inhibition of growth at 10 µM (NCI/ADR-RES): < 10%
inhibition of growth at 10 µM (UACC-62): < 10%
inhibition of growth at 10 µM (NCI-H226): < 10%
inhibition of growth at 10 µM (U-251): 14.6%
inhibition of growth at 10 µM (MCF7): < 10%
inhibition of growth at 10 µM (786-0): < 10%
inhibition of growth at 10 µM (T47D): < 10%
inhibition of growth at 10 µM (OVCAR-5): < 10%
inhibition of growth at 10 µM (SF-539): < 10%
inhibition of growth at 10 µM (SF-295): < 10%
inhibition of growth at 10 µM (OVCAR-4): < 10%
inhibition of growth at 10 µM (K562): 12.4%
inhibition of growth at 10 µM (CCRF-CEM): < 10%
inhibition of growth at 10 µM (NCI-H522): < 10%
inhibition of growth at 10 µM (M14): < 10%
inhibition of growth at 10 µM (HL-60(TB)): < 10%
inhibition of growth at 10 µM (KM12): < 10%
inhibition of growth at 10 µM (RPMI-8226): < 10%
inhibition of growth at 10 µM (TK-10): < 10%
inhibition of growth at 10 µM (SNB-75): < 10%
inhibition of growth at 10 µM (UO-31): < 10%
inhibition of growth at 10 µM (Hs-578T): < 10%
